Data: article PMC9662162 (Insect biochemistry and molecular biology, 2022)
pKd: −log10 of the molar value. Like-named read-outs stand apart in the source and are kept apart here.

Key:
AnDar-D7L2 = AnDar-D7L2 (Anopheles darlingi, UniProt B6DDQ8); test: biochemical; assay type: binding; settings: for fold difference in binding tightness, serotonin vs tryptamine: ratio of KD values
AnAtr-D7L1 = biological target: T1, AnAtr-D7L1 (Anopheles atroparvus, UniProt A0A182IRF8); test: ITC ligand binding to recombinant AnAtr-D7L1; settings: for binding observed by ITC (in words): 30°C, 4 μM protein, 40 μM ligand
T1 sequence (A0A182IRF8 24-316): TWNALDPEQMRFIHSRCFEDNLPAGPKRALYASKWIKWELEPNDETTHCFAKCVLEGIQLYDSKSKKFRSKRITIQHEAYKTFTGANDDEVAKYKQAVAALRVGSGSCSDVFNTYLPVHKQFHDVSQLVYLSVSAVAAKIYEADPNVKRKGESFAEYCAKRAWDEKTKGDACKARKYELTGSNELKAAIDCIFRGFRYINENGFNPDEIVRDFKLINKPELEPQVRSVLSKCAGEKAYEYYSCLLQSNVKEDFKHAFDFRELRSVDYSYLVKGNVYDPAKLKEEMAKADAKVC

An. gambiae D7L3 = An. gambiae D7L3 (Anopheles gambiae, UniProt A0A1S4HE90); test: biochemical; assay type: binding
AnSt-D7L1 = settings: ref Alvarenga et al., 2010; cited from earlier work
AeD7S1 = biological target: T2, AeD7S1 (Aedes aegypti, UniProt Q8T9T4); test: ITC serotonin binding to recombinant AeD7S1; settings: 30°C, 4 μM protein, 40 μM serotonin
T2 sequence (Q8T9T4 22-148): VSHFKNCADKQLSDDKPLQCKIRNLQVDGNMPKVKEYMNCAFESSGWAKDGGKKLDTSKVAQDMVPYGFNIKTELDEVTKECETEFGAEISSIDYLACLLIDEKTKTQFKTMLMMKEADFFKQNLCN

D7CQS1 = biological target: T3, D7CQS1 (Culex quinquefasciatus, UniProt Q6TS00); test: ITC serotonin binding to recombinant D7CQS1; settings: 30°C, 4 μM protein, 40 μM serotonin
T3 sequence (Q6TS00 19-161): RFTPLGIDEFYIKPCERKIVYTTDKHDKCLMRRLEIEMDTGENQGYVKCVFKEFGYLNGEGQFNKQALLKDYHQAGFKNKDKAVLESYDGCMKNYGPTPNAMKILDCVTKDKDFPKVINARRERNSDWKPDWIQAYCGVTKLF

Platelet-rich plasma = test: Platelet aggregation assay in platelet-rich plasma; assay type: cell-based, human; settings: protein 0.6, 2 and 6 μM

AnDar-D7L2, sequence (B6DDQ8 21-317 limits assumed): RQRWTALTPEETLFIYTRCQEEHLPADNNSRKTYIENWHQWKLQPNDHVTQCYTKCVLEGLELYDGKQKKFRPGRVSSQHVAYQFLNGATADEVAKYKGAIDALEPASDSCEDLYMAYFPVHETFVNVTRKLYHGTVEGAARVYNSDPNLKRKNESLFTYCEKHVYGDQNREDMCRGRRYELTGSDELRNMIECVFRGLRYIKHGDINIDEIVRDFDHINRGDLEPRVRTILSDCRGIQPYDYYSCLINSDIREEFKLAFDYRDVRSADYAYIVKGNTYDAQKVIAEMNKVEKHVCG
An. gambiae D7L3, sequence (A0A1S4HE90 27-354 limits assumed): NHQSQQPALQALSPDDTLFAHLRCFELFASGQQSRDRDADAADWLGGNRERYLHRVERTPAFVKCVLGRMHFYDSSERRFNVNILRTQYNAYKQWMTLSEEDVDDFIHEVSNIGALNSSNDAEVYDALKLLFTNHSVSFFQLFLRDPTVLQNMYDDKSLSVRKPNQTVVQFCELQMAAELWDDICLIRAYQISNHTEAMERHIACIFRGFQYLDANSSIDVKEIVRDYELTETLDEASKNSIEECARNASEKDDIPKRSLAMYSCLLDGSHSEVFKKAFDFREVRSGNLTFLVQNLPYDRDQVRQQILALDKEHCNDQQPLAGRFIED

## NCC(O)c1ccc(O)cc1 (racemic) [octopamine, (±)-octopamine]
AnDar-D7L2; ITC, 30°C
  binding observed by ITC (in words): measurable

## CCCCC[C@H](O)/C=C/C=C\C/C=C\C/C=C\CCCC(=O)O [15-HETE]
AnAtr-D7L1
  binding observed by ITC (in words): No binding was detected

## Nc1ncnc2c1ncn2[C@@H]1O[C@H](COP(=O)(O)OP(=O)(O)O)[C@@H](O)[C@H]1O [ADP]
AnDar-D7L2; ITC, 30°C
  binding observed by ITC (in words): inability to bind
An. gambiae D7L3; ITC, 30°C, 4 μM protein, 40 μM ligand
  binding observed by ITC (in words): none

## CCCCC/C=C\C[C@@H](O)/C=C/C=C/C=C\[C@@H](O)CCCC(=O)O [LTB4]
AnDar-D7L2
  binding observed by ITC (in words): unable to bind
AnAtr-D7L1
  binding observed by ITC (in words): No binding was detected

## CCCCC/C=C\C\C=C/C=C/C=C/[C@@H](SC[C@H](NC(=O)CC[C@H](N)C(=O)O)C(=O)NCC(=O)O)[C@@H](O)CCCC(=O)O [LTC4]
AnDar-D7L2
  binding observed by ITC (in words): high affinity

## CCCCC/C=C\C\C=C/C=C/C=C/[C@@H](SC[C@H](N)C(=O)NCC(=O)O)[C@@H](O)CCCC(=O)O [LTD4]
AnDar-D7L2
  binding observed by ITC (in words): high affinity

## CCCCC/C=C\C\C=C/C=C/C=C/[C@@H](SC[C@H](N)C(=O)O)[C@@H](O)CCCC(=O)O [LTE4]
AnDar-D7L2
  binding observed by ITC (in words): high affinity

## CCCCC[C@H](O)/C=C/[C@@H]1[C@@H](C/C=C\CCCC(=O)O)[C@@H](O)C[C@H]1O [PGF2α]
AnAtr-D7L1
  binding observed by ITC (in words): No binding was detected

## CCCCC[C@H](O)/C=C/[C@@H]1[C@@H](C/C=C\CCCC(=O)O)[C@H]2CO[C@@H]1C2 [U46619]
AnDar-D7L2
  binding observed by ITC (in words): high affinity
AnAtr-D7L1
  binding observed by ITC (in words): does not bind
AnSt-D7L1
  binding (in words): ability to bind

## NCCc1ccc(O)c(O)c1 [dopamine]
AnDar-D7L2
  binding observed by ITC (in words): measurable

## CNC[C@H](O)c1ccc(O)c(O)c1 [epinephrine]
AnDar-D7L2
  binding observed by ITC (in words): No detectable binding

## NCCc1c[nH]cn1 [histamine]
AnDar-D7L2
  binding observed by ITC (in words): No detectable binding
An. gambiae D7L3
  pKd: 5.82

## NC[C@H](O)c1ccc(O)c(O)c1 [norepinephrine, L(+)-norepinephrine]
AnDar-D7L2; ITC, 30°C
  binding observed by ITC (in words): measurable
An. gambiae D7L3
  pKd: 5.60

## NCCc1c[nH]c2ccc(O)cc12 [serotonin]
AnDar-D7L2
  pKd: 7.77
AnDar-D7L2; ITC
  fold difference in binding tightness, serotonin vs tryptamine: 30 fold
AnAtr-D7L1
  pKd: ~8.52
An. gambiae D7L3
  pKd: 7.66
AeD7S1
  serotonin binding by ITC (in words): Lack of serotonin binding
AnSt-D7L1
  binding (in words): does not bind
D7CQS1
  serotonin binding by ITC (in words): Lack of serotonin binding

## NCCc1c[nH]c2ccccc12 [tryptamine]
AnDar-D7L2
  pKd: 6.29
AnDar-D7L2; ITC
  fold difference in binding tightness, serotonin vs tryptamine: 30 fold
AnAtr-D7L1
  binding observed by ITC (in words): equally high affinity

## AnDar-D7L2: recombinant two-domain D7 long form salivary protein from Anopheles darlingi (EU934268.1)
Platelet-rich plasma; agonist ADP
  effect on ADP-induced platelet aggregation: did not inhibit
Platelet-rich plasma; agonist U46619
  effect on platelet aggregation induced by U46619: inhibits
Platelet-rich plasma; agonist arachidonic acid
  effect on platelet aggregation induced by arachidonic acid (AA): inhibits
Platelet-rich plasma; agonist epinephrine
  effect on epinephrine-induced platelet aggregation: did not inhibit
Platelet-rich plasma; collagen at low concentrations, 1 min preincubation
  effect on platelet aggregation induced by collagen: inhibits
